Measurements reported in article PMC10227015, “From a drug repositioning to a structure-based drug design approach to tackle acute lymphoblastic leukemia” (Nature Communications, 2023).

Columns and labels:
Test in all cases: KINOMEscan competition binding
Details in all cases: OR0642 1 µM; read-out: %Control
ABL1-phosphorylated = molecular target: T1, ABL1-phosphorylated (Homo sapiens, UniProt P00519)
T1 construct: purchased Eurofins DiscoverX (KINOMEscan scanEDGE 97)
Method: (§1) Kinome profiling was provided by Eurofins DiscoverX Corporation. Determination of the % control activity for 97 kinases was obtained through an active site-directed competition binding assay that quantitatively measure interactions between compound and kinases. OR0642 was used at 1 μM.
(§2) Supplementary Table 3. KINOMEscan™ Profiling of OR0642. Competition binding assay to
(§3) quantitatively measure interactions between OR0642 (1 µM) and 97 human kinases and disease
(§4) relevant mutant variants.

PCTK1 = molecular target: T2, PCTK1 (Homo sapiens, UniProt Q00536)
T2 construct: purchased Eurofins DiscoverX (KINOMEscan scanEDGE 97)
Method: as §1, §2, §3, §4

ERK1 = molecular target: T3, ERK1 (Homo sapiens, UniProt P27361)
T3 construct: purchased Eurofins DiscoverX (KINOMEscan scanEDGE 97)
Method: as §1, §2, §3, §4

JNK3 = molecular target: T4, JNK3 (Homo sapiens, UniProt P53779)
T4 construct: purchased Eurofins DiscoverX (KINOMEscan scanEDGE 97)
Method: as §1, §2, §3, §4

PAK4 = molecular target: T5, PAK4 (Homo sapiens, UniProt O96013)
T5 construct: purchased Eurofins DiscoverX (KINOMEscan scanEDGE 97)
Method: as §1, §2, §3, §4

CDK2 = molecular target: T6, CDK2 (Homo sapiens, UniProt P24941)
T6 construct: purchased Eurofins DiscoverX (KINOMEscan scanEDGE 97)
Method: as §1, §2, §3, §4

MKNK1 = molecular target: T7, MKNK1 (Homo sapiens, UniProt Q9BUB5)
T7 construct: purchased Eurofins DiscoverX (KINOMEscan scanEDGE 97)
Method: as §1, §2, §3, §4

AXL = molecular target: T8, AXL (Homo sapiens, UniProt P30530)
T8 construct: purchased Eurofins DiscoverX (KINOMEscan scanEDGE 97)
Method: as §1, §2, §3, §4

FLT3 = molecular target: T9, FLT3 (Homo sapiens, UniProt P36888)
T9 construct: purchased Eurofins DiscoverX (KINOMEscan scanEDGE 97)
Method: as §1, §2, §3, §4

[1] = molecular target: T10, ABL1(T315I)-phosphorylated (Homo sapiens, UniProt P00519, T315I)
T10 construct: purchased Eurofins DiscoverX (KINOMEscan scanEDGE 97)
Method: as §1, §2, §3, §4

MAP3K4 = molecular target: T11, MAP3K4 (Homo sapiens, UniProt Q9Y6R4)
T11 construct: purchased Eurofins DiscoverX (KINOMEscan scanEDGE 97)
Method: as §1, §2, §3, §4

KIT(V559D,T670I) = molecular target: T12, KIT(V559D,T670I) (Homo sapiens, UniProt P10721, T670I/V559D)
T12 construct: purchased Eurofins DiscoverX (KINOMEscan scanEDGE 97)
Method: as §1, §2, §3, §4

JNK2 = molecular target: T13, JNK2 (Homo sapiens, UniProt P45984)
T13 construct: purchased Eurofins DiscoverX (KINOMEscan scanEDGE 97)
Method: as §1, §2, §3, §4

MEK2 = molecular target: T14, MEK2 (Homo sapiens, UniProt P36507)
T14 construct: purchased Eurofins DiscoverX (KINOMEscan scanEDGE 97)
Method: as §1, §2, §3, §4

INSR = molecular target: T15, INSR (Homo sapiens, UniProt P06213)
T15 construct: purchased Eurofins DiscoverX (KINOMEscan scanEDGE 97)
Method: as §1, §2, §3, §4

PDGFRB = molecular target: T16, PDGFRB (Homo sapiens, UniProt P09619)
T16 construct: purchased Eurofins DiscoverX (KINOMEscan scanEDGE 97)
Method: as §1, §2, §3, §4

CSNK1D = molecular target: T17, CSNK1D (Homo sapiens, UniProt P48730)
T17 construct: purchased Eurofins DiscoverX (KINOMEscan scanEDGE 97)
Method: as §1, §2, §3, §4

MARK3 = molecular target: T18, MARK3 (Homo sapiens, UniProt P27448)
T18 construct: purchased Eurofins DiscoverX (KINOMEscan scanEDGE 97)
Method: as §1, §2, §3, §4

KIT = molecular target: T19, KIT (Homo sapiens, UniProt P10721)
T19 construct: purchased Eurofins DiscoverX (KINOMEscan scanEDGE 97)
Method: as §1, §2, §3, §4

PIK3C2B = molecular target: T20, PIK3C2B (Homo sapiens, UniProt O00750)
T20 construct: purchased Eurofins DiscoverX (KINOMEscan scanEDGE 97)
Method: as §1, §2, §3, §4

AKT2 = molecular target: T21, AKT2 (Homo sapiens, UniProt P31751)
T21 construct: purchased Eurofins DiscoverX (KINOMEscan scanEDGE 97)
Method: as §1, §2, §3, §4

EGFR(L858R) = molecular target: T22, EGFR(L858R) (Homo sapiens, UniProt P00533, L858R)
T22 construct: purchased Eurofins DiscoverX (KINOMEscan scanEDGE 97)
Method: as §1, §2, §3, §4

MLK1 = molecular target: T23, MLK1 (Homo sapiens, UniProt P80192)
T23 construct: purchased Eurofins DiscoverX (KINOMEscan scanEDGE 97)
Method: as §1, §2, §3, §4

AURKB = molecular target: T24, AURKB (Homo sapiens, UniProt Q96GD4)
T24 construct: purchased Eurofins DiscoverX (KINOMEscan scanEDGE 97)
Method: as §1, §2, §3, §4

CDK9 = molecular target: T25, CDK9 (Homo sapiens, UniProt P50750)
T25 construct: purchased Eurofins DiscoverX (KINOMEscan scanEDGE 97)
Method: as §1, §2, §3, §4

[2] = molecular target: T26, ABL1(E255K)-phosphorylated (Homo sapiens, UniProt P00519, E255K)
T26 construct: purchased Eurofins DiscoverX (KINOMEscan scanEDGE 97)
Method: as §1, §2, §3, §4

KIT(D816V) = molecular target: T27, KIT(D816V) (Homo sapiens, UniProt P10721, D816V)
T27 construct: purchased Eurofins DiscoverX (KINOMEscan scanEDGE 97)
Method: as §1, §2, §3, §4

DYRK1B = molecular target: T28, DYRK1B (Homo sapiens, UniProt Q9Y463)
T28 construct: purchased Eurofins DiscoverX (KINOMEscan scanEDGE 97)
Method: as §1, §2, §3, §4

MEK1 = molecular target: T29, MEK1 (Homo sapiens, UniProt Q02750)
T29 construct: purchased Eurofins DiscoverX (KINOMEscan scanEDGE 97)
Method: as §1, §2, §3, §4

PAK1 = molecular target: T30, PAK1 (Homo sapiens, UniProt Q13153)
T30 construct: purchased Eurofins DiscoverX (KINOMEscan scanEDGE 97)
Method: as §1, §2, §3, §4

IKK-alpha = molecular target: T31, IKK-alpha (Homo sapiens, UniProt O15111)
T31 construct: purchased Eurofins DiscoverX (KINOMEscan scanEDGE 97)
Method: as §1, §2, §3, §4

ALK = molecular target: T32, ALK (Homo sapiens, UniProt Q9UM73)
T32 construct: purchased Eurofins DiscoverX (KINOMEscan scanEDGE 97)
Method: as §1, §2, §3, §4

PIK3CA = molecular target: T33, PIK3CA (Homo sapiens, UniProt P42336)
T33 construct: purchased Eurofins DiscoverX (KINOMEscan scanEDGE 97)
Method: as §1, §2, §3, §4

ERBB2 = molecular target: T34, ERBB2 (Homo sapiens, UniProt P04626)
T34 construct: purchased Eurofins DiscoverX (KINOMEscan scanEDGE 97)
Method: as §1, §2, §3, §4

ERBB4 = molecular target: T35, ERBB4 (Homo sapiens, UniProt Q15303)
T35 construct: purchased Eurofins DiscoverX (KINOMEscan scanEDGE 97)
Method: as §1, §2, §3, §4

PIK3CG = molecular target: T36, PIK3CG (Homo sapiens, UniProt P48736)
T36 construct: purchased Eurofins DiscoverX (KINOMEscan scanEDGE 97)
Method: as §1, §2, §3, §4

LKB1 = molecular target: T37, LKB1 (Homo sapiens, UniProt Q15831)
T37 construct: purchased Eurofins DiscoverX (KINOMEscan scanEDGE 97)
Method: as §1, §2, §3, §4

AURKA = molecular target: T38, AURKA (Homo sapiens, UniProt O14965)
T38 construct: purchased Eurofins DiscoverX (KINOMEscan scanEDGE 97)
Method: as §1, §2, §3, §4

BRAF(V600E) = molecular target: T39, BRAF(V600E) (Homo sapiens, UniProt P15056, V600E)
T39 construct: purchased Eurofins DiscoverX (KINOMEscan scanEDGE 97)
Method: as §1, §2, §3, §4

AKT1 = molecular target: T40, AKT1 (Homo sapiens, UniProt P31749)
T40 construct: purchased Eurofins DiscoverX (KINOMEscan scanEDGE 97)
Method: as §1, §2, §3, §4

DCAMKL1 = molecular target: T41, DCAMKL1 (Homo sapiens, UniProt O15075)
T41 construct: purchased Eurofins DiscoverX (KINOMEscan scanEDGE 97)
Method: as §1, §2, §3, §4

T25 sequence (P50750 whole entry): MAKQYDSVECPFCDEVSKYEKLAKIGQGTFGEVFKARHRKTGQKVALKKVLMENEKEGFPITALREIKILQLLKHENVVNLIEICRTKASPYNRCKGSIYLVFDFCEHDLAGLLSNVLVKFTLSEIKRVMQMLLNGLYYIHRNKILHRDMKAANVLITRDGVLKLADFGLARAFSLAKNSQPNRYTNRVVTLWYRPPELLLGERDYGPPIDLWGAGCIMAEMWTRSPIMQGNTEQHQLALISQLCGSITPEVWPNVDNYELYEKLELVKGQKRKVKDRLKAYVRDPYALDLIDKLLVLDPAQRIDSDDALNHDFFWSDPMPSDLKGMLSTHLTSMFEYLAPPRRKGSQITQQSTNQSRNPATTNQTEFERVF
T19 sequence (P10721 26-976): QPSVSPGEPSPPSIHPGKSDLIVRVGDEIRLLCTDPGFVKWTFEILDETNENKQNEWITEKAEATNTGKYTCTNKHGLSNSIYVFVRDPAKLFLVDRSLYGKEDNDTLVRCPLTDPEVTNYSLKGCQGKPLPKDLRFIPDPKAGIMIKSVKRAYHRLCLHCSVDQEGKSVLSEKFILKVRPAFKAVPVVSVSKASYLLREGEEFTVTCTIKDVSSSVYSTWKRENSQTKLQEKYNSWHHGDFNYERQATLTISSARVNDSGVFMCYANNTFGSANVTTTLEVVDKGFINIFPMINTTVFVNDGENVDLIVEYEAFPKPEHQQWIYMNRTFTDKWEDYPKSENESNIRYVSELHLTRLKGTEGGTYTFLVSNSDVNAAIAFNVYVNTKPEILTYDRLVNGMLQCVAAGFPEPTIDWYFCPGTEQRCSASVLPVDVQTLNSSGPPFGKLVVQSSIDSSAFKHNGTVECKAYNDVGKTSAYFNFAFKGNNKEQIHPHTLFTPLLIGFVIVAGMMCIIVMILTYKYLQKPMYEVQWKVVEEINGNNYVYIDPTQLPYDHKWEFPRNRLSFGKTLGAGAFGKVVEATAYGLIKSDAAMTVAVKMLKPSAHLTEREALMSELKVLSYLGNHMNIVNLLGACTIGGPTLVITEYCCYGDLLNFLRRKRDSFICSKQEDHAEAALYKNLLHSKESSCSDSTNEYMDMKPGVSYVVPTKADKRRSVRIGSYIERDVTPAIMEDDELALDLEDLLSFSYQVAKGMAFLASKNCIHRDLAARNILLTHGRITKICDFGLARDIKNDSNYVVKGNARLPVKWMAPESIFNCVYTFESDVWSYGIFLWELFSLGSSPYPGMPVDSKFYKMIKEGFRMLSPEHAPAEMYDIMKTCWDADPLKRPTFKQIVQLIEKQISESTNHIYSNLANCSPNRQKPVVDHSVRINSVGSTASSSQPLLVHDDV
T31 sequence (O15111 whole entry): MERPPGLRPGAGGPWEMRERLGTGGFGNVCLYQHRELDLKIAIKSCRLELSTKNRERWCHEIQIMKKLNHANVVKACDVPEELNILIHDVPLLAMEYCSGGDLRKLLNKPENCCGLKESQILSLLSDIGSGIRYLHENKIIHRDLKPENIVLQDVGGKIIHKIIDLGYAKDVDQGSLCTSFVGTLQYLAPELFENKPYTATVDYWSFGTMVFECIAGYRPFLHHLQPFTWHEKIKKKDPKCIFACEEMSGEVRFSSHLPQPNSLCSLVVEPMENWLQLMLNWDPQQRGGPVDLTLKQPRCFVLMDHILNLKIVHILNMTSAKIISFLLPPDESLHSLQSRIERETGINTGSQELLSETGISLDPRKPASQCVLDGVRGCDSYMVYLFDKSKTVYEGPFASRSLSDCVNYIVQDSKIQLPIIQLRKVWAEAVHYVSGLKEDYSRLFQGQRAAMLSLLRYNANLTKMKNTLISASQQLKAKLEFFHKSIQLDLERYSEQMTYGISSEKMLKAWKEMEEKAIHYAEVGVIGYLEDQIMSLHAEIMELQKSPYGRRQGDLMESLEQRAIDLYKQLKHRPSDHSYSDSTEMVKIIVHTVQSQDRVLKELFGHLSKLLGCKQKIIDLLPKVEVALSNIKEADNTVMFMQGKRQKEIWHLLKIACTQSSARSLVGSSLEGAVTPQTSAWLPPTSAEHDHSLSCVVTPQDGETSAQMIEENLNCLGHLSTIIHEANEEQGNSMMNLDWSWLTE
T40 sequence (P31749 whole entry): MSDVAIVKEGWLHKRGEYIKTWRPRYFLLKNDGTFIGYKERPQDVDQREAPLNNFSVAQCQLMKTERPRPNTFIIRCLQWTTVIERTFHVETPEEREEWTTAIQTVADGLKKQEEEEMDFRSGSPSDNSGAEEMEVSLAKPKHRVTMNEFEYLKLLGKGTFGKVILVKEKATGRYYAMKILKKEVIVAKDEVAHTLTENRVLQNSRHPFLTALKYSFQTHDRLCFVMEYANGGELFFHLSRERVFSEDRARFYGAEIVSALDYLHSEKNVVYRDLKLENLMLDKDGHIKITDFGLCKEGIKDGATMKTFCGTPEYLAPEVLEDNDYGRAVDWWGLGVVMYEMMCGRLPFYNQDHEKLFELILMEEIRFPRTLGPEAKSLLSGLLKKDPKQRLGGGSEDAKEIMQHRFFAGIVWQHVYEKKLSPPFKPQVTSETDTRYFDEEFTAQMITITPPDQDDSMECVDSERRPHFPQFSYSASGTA
T22 sequence (P00533 25-1210 L858R): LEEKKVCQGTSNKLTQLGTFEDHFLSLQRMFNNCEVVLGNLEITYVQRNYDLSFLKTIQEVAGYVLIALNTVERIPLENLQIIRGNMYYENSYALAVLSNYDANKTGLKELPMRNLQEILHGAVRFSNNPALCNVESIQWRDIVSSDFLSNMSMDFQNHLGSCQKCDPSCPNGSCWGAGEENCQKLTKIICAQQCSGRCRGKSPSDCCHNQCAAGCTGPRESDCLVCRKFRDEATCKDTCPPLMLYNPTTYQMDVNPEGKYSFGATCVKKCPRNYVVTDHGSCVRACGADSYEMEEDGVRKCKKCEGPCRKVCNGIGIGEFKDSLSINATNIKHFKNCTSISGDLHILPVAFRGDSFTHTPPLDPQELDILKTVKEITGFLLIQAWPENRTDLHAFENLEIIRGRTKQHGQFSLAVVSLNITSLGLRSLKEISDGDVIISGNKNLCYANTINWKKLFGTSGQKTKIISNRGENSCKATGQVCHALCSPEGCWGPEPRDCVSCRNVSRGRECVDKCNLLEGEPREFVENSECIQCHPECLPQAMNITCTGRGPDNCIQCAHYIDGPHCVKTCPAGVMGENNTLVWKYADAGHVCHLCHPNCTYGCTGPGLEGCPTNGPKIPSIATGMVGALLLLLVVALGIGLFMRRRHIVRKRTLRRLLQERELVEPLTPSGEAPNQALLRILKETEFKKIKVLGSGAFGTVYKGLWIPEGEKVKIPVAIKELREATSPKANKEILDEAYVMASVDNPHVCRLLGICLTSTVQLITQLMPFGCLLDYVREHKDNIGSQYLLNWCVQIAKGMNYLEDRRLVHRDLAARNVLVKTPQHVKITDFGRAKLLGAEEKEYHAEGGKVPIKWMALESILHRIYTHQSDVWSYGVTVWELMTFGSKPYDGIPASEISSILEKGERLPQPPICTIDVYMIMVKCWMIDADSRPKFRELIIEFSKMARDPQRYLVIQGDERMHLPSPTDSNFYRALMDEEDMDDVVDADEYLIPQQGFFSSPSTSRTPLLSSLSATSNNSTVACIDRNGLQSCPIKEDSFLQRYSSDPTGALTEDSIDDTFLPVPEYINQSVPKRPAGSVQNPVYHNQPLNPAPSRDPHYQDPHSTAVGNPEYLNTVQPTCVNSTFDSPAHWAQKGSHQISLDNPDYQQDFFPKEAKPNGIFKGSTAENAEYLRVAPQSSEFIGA
T35 sequence (Q15303 26-1308): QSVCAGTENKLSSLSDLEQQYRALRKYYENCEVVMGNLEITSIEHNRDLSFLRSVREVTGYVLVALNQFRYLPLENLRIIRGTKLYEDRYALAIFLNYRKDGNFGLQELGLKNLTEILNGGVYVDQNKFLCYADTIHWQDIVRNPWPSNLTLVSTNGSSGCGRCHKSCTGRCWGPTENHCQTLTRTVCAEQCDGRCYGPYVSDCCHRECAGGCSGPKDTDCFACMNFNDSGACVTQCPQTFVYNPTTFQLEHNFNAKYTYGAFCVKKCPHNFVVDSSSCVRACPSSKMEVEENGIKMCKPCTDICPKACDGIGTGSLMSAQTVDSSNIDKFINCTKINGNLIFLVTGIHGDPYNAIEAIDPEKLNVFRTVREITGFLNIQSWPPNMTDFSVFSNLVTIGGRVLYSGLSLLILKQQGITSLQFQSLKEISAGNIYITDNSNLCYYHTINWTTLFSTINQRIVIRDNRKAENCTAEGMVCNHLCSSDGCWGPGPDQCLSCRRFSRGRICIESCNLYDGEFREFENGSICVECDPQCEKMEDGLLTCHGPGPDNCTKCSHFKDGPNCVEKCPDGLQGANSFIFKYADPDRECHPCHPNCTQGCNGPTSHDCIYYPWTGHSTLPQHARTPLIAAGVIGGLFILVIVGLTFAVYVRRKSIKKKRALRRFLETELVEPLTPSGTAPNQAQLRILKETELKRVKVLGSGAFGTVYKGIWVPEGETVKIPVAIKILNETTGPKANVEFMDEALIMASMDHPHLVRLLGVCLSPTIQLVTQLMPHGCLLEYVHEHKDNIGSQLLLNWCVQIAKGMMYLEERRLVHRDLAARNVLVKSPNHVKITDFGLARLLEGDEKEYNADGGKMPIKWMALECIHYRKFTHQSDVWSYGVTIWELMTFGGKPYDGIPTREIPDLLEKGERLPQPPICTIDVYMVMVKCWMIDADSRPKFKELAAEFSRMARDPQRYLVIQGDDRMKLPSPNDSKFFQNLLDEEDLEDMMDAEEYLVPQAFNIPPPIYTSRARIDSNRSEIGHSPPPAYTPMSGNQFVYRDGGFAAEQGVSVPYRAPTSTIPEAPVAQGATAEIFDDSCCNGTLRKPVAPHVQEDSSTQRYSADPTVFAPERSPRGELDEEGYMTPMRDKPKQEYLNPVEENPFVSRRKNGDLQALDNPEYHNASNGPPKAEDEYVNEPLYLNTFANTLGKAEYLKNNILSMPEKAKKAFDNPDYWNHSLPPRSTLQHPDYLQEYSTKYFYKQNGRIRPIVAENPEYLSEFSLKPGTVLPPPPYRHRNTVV
T27 sequence (P10721 26-976 D816V): as the sequence (P10721 26-976) above, with D791V counted along it

Work on CCCN(c1nc(-c2nc(N)cc(N)n2)cs1)c1cc(-c2ccc(S(=O)(=O)N3CCN(C)CC3)cc2C(F)(F)F)ccc1C [OR0642] yielded a remaining binding at 1 µM (ABL1-phosphorylated) of 99%, a remaining binding at 1 µM (PCTK1) of 98% and a remaining binding at 1 µM (ERK1) of 86%. For the same molecule, the remaining binding at 1 µM (JNK3) was 81%, the remaining binding at 1 µM (PAK4) was 91% and the remaining binding at 1 µM (CDK2) was 100%. It also gave a remaining binding at 1 µM (MKNK1) of 100%, a remaining binding at 1 µM (AXL) of 89% and a remaining binding at 1 µM (FLT3) of 100%. It also gave a remaining binding at 1 µM [1] of 89%, a remaining binding at 1 µM (MAP3K4) of 97% and a remaining binding at 1 µM (KIT(V559D,T670I)) of 100%. It also gave a remaining binding at 1 µM (JNK2) of 84%, a remaining binding at 1 µM (MEK2) of 96% and a remaining binding at 1 µM (INSR) of 99%. The remaining binding at 1 µM (PDGFRB) was 100%, the remaining binding at 1 µM (CSNK1D) was 100% and the remaining binding at 1 µM (MARK3) was 100%. For the same molecule, the remaining binding at 1 µM (KIT) was 91%, the remaining binding at 1 µM (PIK3C2B) was 100% and the remaining binding at 1 µM (AKT2) was 100%. It also gave a remaining binding at 1 µM (EGFR(L858R)) of 72%, a remaining binding at 1 µM (MLK1) of 91% and a remaining binding at 1 µM (AURKB) of 85%. It also gave a remaining binding at 1 µM (CDK9) of 98%, a remaining binding at 1 µM [2] of 96% and a remaining binding at 1 µM (KIT(D816V)) of 94%. For the same molecule, the remaining binding at 1 µM (DYRK1B) was 100%, the remaining binding at 1 µM (MEK1) was 97% and the remaining binding at 1 µM (PAK1) was 100%. It also gave a remaining binding at 1 µM (IKK-alpha) of 65%, a remaining binding at 1 µM (ALK) of 80% and a remaining binding at 1 µM (PIK3CA) of 100%. The remaining binding at 1 µM (ERBB2) was 100%, the remaining binding at 1 µM (ERBB4) was 100% and the remaining binding at 1 µM (PIK3CG) was 100%. It also gave a remaining binding at 1 µM (LKB1) of 99%, a remaining binding at 1 µM (AURKA) of 96% and a remaining binding at 1 µM (BRAF(V600E)) of 98%. For the same molecule, the remaining binding at 1 µM (AKT1) was 91% and the remaining binding at 1 µM (DCAMKL1) was 81%.
